Assay results as given in patent US8299113B2, “Bicyclic tetrahydropyrrole compounds” (Laboratorios del Dr. Esteve, S.A., priority 2006, dated 2012).

What was measured:
[1] = molecular target: T1, σ1-receptor (Cavia porcellus, UniProt Q60492); experiment: Sigma-1 receptor radioligand binding, [3H](+)-pentazocine, brain membranes; conditions: [3H](+)-pentazocine 0.5 nM, guinea pig brain membranes; for % Binding σ1 10^−7M: compound concentration 10^−7 M; for % Binding σ1 10^−8M: compound concentration 10^−8 M
T1 construct: guinea pig brains are homogenized; from tissue; host or cells: guinea pig brain membranes
T1 sequence (Q60492 whole entry): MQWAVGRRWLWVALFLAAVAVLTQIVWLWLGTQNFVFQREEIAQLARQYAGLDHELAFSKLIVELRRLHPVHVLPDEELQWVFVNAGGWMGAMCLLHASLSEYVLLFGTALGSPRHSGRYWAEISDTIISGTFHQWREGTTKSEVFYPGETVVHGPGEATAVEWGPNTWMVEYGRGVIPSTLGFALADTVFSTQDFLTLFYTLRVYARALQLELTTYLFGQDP
Description: Brain membrane preparation and binding assays for the σ1-receptor are performed as described (DeHaven-Hudkins et al., 1992) with some modifications. In brief, guinea pig brains are homogenized in 10 vols. (w/v) of Tris-HCl 50 mM 0.32 M sucrose, pH 7.4 is centrifuged at 1000 g for 10 min at 4° C. and the supernatants collected and centrifuged again at 48000 g for 15 min at 4° C. The pellet is resuspended in 10 volumes of Tris-HCl buffer (50 mM, pH 7.4), incubated at 37° C. for 30 min, and centrifuged at 48000 g for 20 min at 4° C. Following this, the pellet is resuspended in fresh Tris-HCl buffer (50 mM, pH 7.4) and stored on ice until use.
Each assay tube contain 10 μL of [^3H](+)-pentazocine (final concentration of 0.5 nM), 900 μL of the tissue suspension to a final assay volume of 1 mL and a final tissue concentration of approximately 30 mg tissue net weight/mL. […] All tubes are incubated at 37° C. for 150 min before termination of the reaction by rapid filtration over Schleicher & Schuell GF 3362 glass fibre filters [previously soaked in a solution of 0.5% polyethylenimine for at least 1 h]. Filters are then washed four times with 4 mL of cold Tris-HCl buffer (50 mM, pH 7.4). Following addition of scintillation cocktail, the samples are allowed to equilibrate overnight. The amount of bound radioactivity is determined by liquid scintillation spectrometry using a Wallac Winspectral 1414 liquid scintillation counter. Protein concentrations are determined by the method of Lowry et al. (1951).

[2] = molecular target: sigma (σ-2) site (Homo sapiens, UniProt Q5BJF2); conditions: background, in words; cited from earlier work
Chain of sigma (σ-2) site (Q5BJF2 whole entry): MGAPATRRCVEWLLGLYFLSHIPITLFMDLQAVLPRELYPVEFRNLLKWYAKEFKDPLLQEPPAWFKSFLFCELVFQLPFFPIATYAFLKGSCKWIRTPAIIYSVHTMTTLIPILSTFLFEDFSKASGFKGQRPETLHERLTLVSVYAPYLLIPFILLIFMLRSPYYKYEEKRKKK

[3] = molecular target: sigma 1 (σ-1) site (Homo sapiens, UniProt Q99720); conditions: background, in words; cited from earlier work
Chain of sigma 1 (σ-1) site (Q99720 whole entry): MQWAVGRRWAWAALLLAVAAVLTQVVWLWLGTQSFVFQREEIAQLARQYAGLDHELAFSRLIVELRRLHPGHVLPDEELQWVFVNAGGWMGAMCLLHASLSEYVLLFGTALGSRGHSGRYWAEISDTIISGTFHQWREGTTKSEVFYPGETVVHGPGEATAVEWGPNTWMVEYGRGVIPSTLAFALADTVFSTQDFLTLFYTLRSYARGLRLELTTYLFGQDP

| Molecule | % Binding σ1 10^−7M [1] | % Binding σ1 10^−8M [1] | affinity for the sigma (σ-2) site [2] | affinity for the sigma 1 (σ-1) site [3] |
| --- | --- | --- | --- | --- |
| COC(=O)[C@H](c1ccccc1)N1C[C@H]2C=C(c3ccccc3)C(=O)[C@H]2C1 [Example 3] | 31.3% | 28.0% |  |  |
| COC(=O)[C@H](c1ccccc1)N1C[C@@H]2C=C(c3ccccc3)C(=O)[C@@H]2C1 [Example 4] | 32.3% | 24.8% |  |  |
| CCOC(=O)[C@H](C)N1C[C@H]2C=C(c3ccccc3)C(=O)[C@H]2C1 [Example 11] | 33.2% | 25.6% |  |  |
| CCOC(=O)[C@H](C)N1C[C@@H]2C=C(c3ccccc3)C(=O)[C@@H]2C1 [Example 12] | 32.4% | 16.7% |  |  |
| CCCCC1=C[C@@H]2CN([C@@H](C)C(=O)OCC)C[C@@H]2C1=O [Example 13, (2S)-ethyl2-((3aR,6aS)-5-butyloxo-1,3a,4,6a-tetrahydrocyclopenta[c]pyrrol-2(1H)-yl)propanoate] | 26.9% | 17.6% |  |  |
| CCCCC1=C[C@H]2CN([C@@H](C)C(=O)OCC)C[C@H]2C1=O [Example 14, (2S)-ethyl 2-((3aS,6aR)-5-butyl-4-oxo-1,3a,4,6a-tetrahydrocyclopenta[c]pyrrol-2(1H)-yl)propanoate] | 39.6% | 28.8% |  |  |
| SKF 10047 |  |  | micromolar | nanomolar |
